Measured values reported in patent US8198273B2, “Compounds and methods for kinase modulation, and indications therefor” (Plexxikon Inc., priority 2009, dated 2012).

Tests used:
[1] = system: SW620 colon adenocarcinoma cells (wild-type B-RAF); test: SW620 cell growth inhibition (ATPlite); format: cell-based; conditions: Homo sapiens, SW-620, 72 h; SW620, 3 days incubation
Protocol: (§1) Compounds are assessed in a variety of cell based assays. For example human cell lines with B-Raf V600E mutation (A375 melanoma, SKMEL3 melanoma, and COL0205 colon adenocarcinoma), as well as tumorigenic cell lines with wild-type B-RAF (SW620 colon adenocarcinoma) or with Ras mutations (SKMEL2 melanoma and IPC298 melanoma). Similar assays may be used to assess additional tumorigenic cell lines with Ras mutations, including, but not limited to, M202, M207, M243, M244, M296, S117, HCT116, HCT15, DLD1, MiaPaCa, A549, NCI-H23, NCI-H460, HOP62, MDA-MB231, Hs-578T, HL60, MOLT-4, and CCRF-CEM.
(§2) On day 1, cells are counted, then centrifuged in a conical tube for 5 minutes at 1000 rpm. The supernatant is removed and cells are re-suspended as follows: • SW620 (ATCC catalog #CCL-27): resuspend in Leibovitz's L-15 medium, 2 mM L-glutamine, 10% fetal bovine serum to 6×10^4 cells/mL. • A375 (ATCC catalog #CRL-1619): resuspend in Dulbecco's modified Eagle's medium, 4 mM L-glutamine, 4.5 g/L D-glucose, 10% fetal bovine serum to 6×10^4 cells/mL. • COL0205 (ATCC catalog #CCL-222): resuspend in RPMI 1640, 2 mM L-glutamine, 1.5 g/L sodium bicarbonate, 4.5 g/L D-glucose, 10 mM HEPES, 1.0 mM sodium pyruvate, 10% fetal bovine serum to 6×10^4 cells/mL. • SKMEL2 (ATCC catalog #HTB-68): resuspend in Minimum Eagle essential medium, 2 mM L-glutamine, 1.5 g/L sodium bicarbonate, 0.1 mM non-essential amino acids, 1.0 mM sodium pyruvate, 10% fetal bovine serum to 6×10^4 cells/mL. • SKMEL3 (ATCC catalog #HTB-69): resuspend in McCoy's 5A medium, 1.5 mM L-glutamine, 15% fetal bovine serum to 6×10^4 cells/mL. • IPC298 (DSMZ catalog #ACC 251): resuspend in RPMI 1640, 2 mM L-glutamine, 10% fetal bovine serum to 6×10^4 cells/mL.
(§3) The cells are plated, 50 μL in each well of a 96-well dish (Corning 3610) and incubated at 37° C. in 5% CO2 overnight, cells plated to a final concentration of cells as follows:
(§4) On day 2, compound at a maximum concentration of 5 mM is serially diluted 1:3 for a total of 8 point titration with DMSO as a control. A 1 μL aliquot of each dilution point and control is added to 249 μL growth media and 50 μL is added to a well containing cells, providing 10 μM compound at the maximum concentration point. The cells are incubated for 3 days at 37° C. in 5% CO2.
(§5) On day 5, ATPlite 1 step Luminescence Assay System (Perkin Elmer #6016739) is brought to room temperature along with the cell cultures. ATPlite is added 25 μL to each well, shake for 2 minutes, and the cells are incubated at room temperature for 10 minutes, then luminescence is read on Safire reader. The measured luminescence correlates directly with cell number, such that the reading as a function of compound concentration is used to determine the IC50 value.
(§6) It is understood that the results of these assays may vary as assay conditions are varied. Inhibition levels determined under the conditions described herein represent a relative activity for the compounds tested under the specific conditions employed. The cell based assays are likely to show variability due to the complexity of the system and the sensitivity thereof to any changes in the assay conditions. […] Results for compounds that are tested and show substantially no inhibition below the highest tested concentration are represented as “-” in the tables below. In some instances, the compounds were not tested in all of the assays, or assay results were not valid, as indicated by NA in the tables below.

[2] = system: A375 melanoma cells (B-Raf V600E); test: A375 cell growth inhibition (ATPlite); format: cell-based; conditions: Homo sapiens, A-375, 72 h; A375, 3 days incubation
Protocol: as §1, §2, §3, §4, §5, §6

[3] = system: COLO205 colon adenocarcinoma cells (B-Raf V600E); test: COLO205 cell growth inhibition (ATPlite); format: cell-based; conditions: Homo sapiens, COLO 205, 72 h; COLO205, 3 days incubation
Protocol: as §1, §2, §3, §4, §5, §6

[4] = system: SKMEL2 melanoma cells (Ras mutation); test: SKMEL2 cell growth inhibition (ATPlite); format: cell-based; conditions: Homo sapiens, SK-MEL-2, 72 h; SKMEL2, 3 days incubation
Protocol: as §1, §2, §3
SKMEL2: 2,000 cells per well.
as §4, §5, §6

[5] = Relative solubility by turbidity in aqueous buffers of varying pH; format: physicochemical
Protocol: As an indication of relative solubility, the turbidity of compounds in aqueous solutions is assessed. To assess possible compound properties in different physiological compartments, such as stomach, intestine, and blood, a series of aqueous buffers with varying pH is used. Thus each compound is diluted into four different physiologically relevant buffers and solution turbidity is measured by spectrophotometry.
Compounds are dissolved at a concentration of 25 mM in dimethyl sulfoxide, then serially diluted 1:1 into a 96 well plate, diluting 10 times in pure dimethyl sulfoxide, with the final well of each row a dimethyl sulfoxide blank. In an assay plate, 99 μL of appropriate buffer is added to each well, and 1 μL of each sample dilution is added to the buffer, achieving a range of final total concentrations in aqueous solutions having different pH. The buffers used are Simulated Gastric Fluid (SGF-pH 1.5) 0.5M NaCl, pH 1.5; Simulated Intestinal fluid (SIF-pH 4.5 and pH 6.8) 0.05M NaH2PO4, pH 4.5 and 6.8; and Hepes Buffer (HEPES-pH 7.4) 10 mM HEPES, 150 mM NaCl, pH 7.4. Control compounds pyrene, estriol and propranolol HCl are also assessed. Plates are spun and then mixed for 1 minute, and the absorbance is read using a Tecan Safire II to read wavelengths in the visible range (490, 535, and 650 nm) at four locations per well, reflecting the degree of turbidity present. The average optical density for each wavelength in each well is graphed vs. compound concentration, and the concentration at which the curve crosses a threshold O.D. of 0.01 for each wavelength is reported as the endpoint turbidity assay result. The average of the three wavelengths is used to compare turbidity of compounds. Compounds are considered to have low solubility if the threshold concentration is <31.3 04, moderate solubility if the threshold concentration is 31.3 μM to 250 μM, and high solubility if the threshold concentration is >250 μM.

B-Raf = B-Raf (Homo sapiens, UniProt P15056); test: B-Raf biochemical kinase inhibition (AlphaScreen, biotin-MEK1 substrate); conditions: 100 μM ATP
Protocol: (§7) Compounds to be tested are diluted in dimethyl sulfoxide to a concentration of 0.1 mM. These are serially diluted 15 μL into 30 μL of dimethyl sulfoxide seven times in 96 well plates for a total of 8 dilution points, and for each dilution point 1 μL is added to a well of an assay plate. […] The reaction is started with addition of 10 μL of 200 μM ATP (i.e. final 100 μM ATP). […] The plates are incubated for 3 hours at room temperature and read on Envision reader (Perkin Elmer). […] The signal vs. compound concentration is used to determine the IC50.

B-Raf V600E = B-Raf V600E (Homo sapiens, UniProt P15056, V600E); test: B-Raf V600E biochemical kinase inhibition (AlphaScreen, biotin-MEK1 substrate); conditions: 100 μM ATP
Protocol: as §7

c-Raf-1 = c-Raf-1 (Homo sapiens, UniProt P04049); test: c-Raf-1 biochemical kinase inhibition (AlphaScreen, biotin-MEK1 substrate); conditions: 100 μM ATP
Protocol: as §7

CYP1A2 = molecular target: T1, CYP1A2 (Homo sapiens, UniProt P05177); test: CYP1A2 inhibition (fluorescent substrate); format: in vitro ADME; conditions: CYP1A2, CEC substrate; read-out: Cyp IC50 1A2
T1 sequence (P05177 1-516): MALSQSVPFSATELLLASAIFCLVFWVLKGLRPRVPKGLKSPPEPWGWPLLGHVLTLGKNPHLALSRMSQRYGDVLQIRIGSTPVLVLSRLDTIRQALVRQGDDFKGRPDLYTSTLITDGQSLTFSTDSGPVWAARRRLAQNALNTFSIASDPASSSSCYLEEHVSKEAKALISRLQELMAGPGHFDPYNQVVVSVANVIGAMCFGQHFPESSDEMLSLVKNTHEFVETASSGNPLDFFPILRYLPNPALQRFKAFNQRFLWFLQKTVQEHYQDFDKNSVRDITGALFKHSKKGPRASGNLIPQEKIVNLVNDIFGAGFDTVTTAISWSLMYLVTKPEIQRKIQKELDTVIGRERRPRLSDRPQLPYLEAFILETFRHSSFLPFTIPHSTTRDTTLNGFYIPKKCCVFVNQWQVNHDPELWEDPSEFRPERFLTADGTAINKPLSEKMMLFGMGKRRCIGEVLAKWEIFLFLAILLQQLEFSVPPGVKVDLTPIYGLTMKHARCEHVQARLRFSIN
Protocol: (§8) CYP (Cytochrome P450) enzymes are the major drug metabolizing enzymes present in the liver. The inhibition of CYP enzyme activity (IC50) for each of CYP1A2, CYP2C19, CYP2C9, CYP2D6, CYP3A4(BFC) and CYP3A4(BQ) is determined for compounds, where inhibition of metabolism of a known substrate leads to a decrease in the fluorescence of the metabolized product. The fluorescence of the product is monitored as a function of compound concentration.
(§9) Compounds are dissolved in dimethyl sulfoxide to a concentration of 100 mM. These are diluted 1 μL into 82 μL of acetonitrile. […] These are then serially diluted 1:1 (160 μL to 160 μL co-factor mix) for a total of 10 points. A 10 μL aliquot of this final mixture is dispensed into 384 well assay plates and incubated for 10 minutes at 37° C. […] Assay plates are incubated at 37° C. […] The signal versus compound concentration is used to determine the IC50. The enzymes and substrates for this assay are obtained from BD Biosciences.

CYP2C19 = CYP2C19 (Homo sapiens, UniProt P33261); test: CYP2C19 inhibition (fluorescent substrate); format: in vitro ADME; conditions: CYP2C19, CEC substrate; read-out: Cyp IC50 2C19
Protocol: as §8, §9

CYP2C9 = CYP2C9 (Homo sapiens, UniProt P11712); test: CYP2C9 inhibition (fluorescent substrate); format: in vitro ADME; conditions: CYP2C9, MFC substrate; read-out: Cyp IC50 2C9
Protocol: as §8, §9

CYP2D6 = CYP2D6 (Homo sapiens, UniProt P10635); test: CYP2D6 inhibition (fluorescent substrate); format: in vitro ADME; conditions: CYP2D6, AMMC substrate; read-out: Cyp IC50 2D6
Protocol: as §8, §9

CYP3A4(BFC) = CYP3A4(BFC) (Homo sapiens, UniProt P08684); test: CYP3A4(BFC) inhibition (fluorescent substrate); format: in vitro ADME; conditions: read-out: Cyp IC50 3A4(BFC)
Protocol: as §9, with “CYP (Cytochrome P450) enzymes are the major drug metabolizing enzymes present in the liver. The inhibition of CYP enzyme activity (IC50) for each of CYP1A2, CYP2C19, CYP2C9, CYP2D6, CYP3A4(BFC) and CYP3A4(BQ) is determined for compounds, where inhibition of metabolism of a known substrate leads to a decrease in the fluorescence of the metabolized product. The fluorescence of the product is monitored as a function of compound concentration. Compounds” for “Compounds”

CYP3A4(BQ) = CYP3A4(BQ) (Homo sapiens, UniProt P08684); test: CYP3A4(BQ) inhibition (fluorescent substrate); format: in vitro ADME; conditions: read-out: Cyp IC50 3A4(BQ)
Protocol: as §9, with “CYP (Cytochrome P450) enzymes are the major drug metabolizing enzymes present in the liver. The inhibition of CYP enzyme activity (IC50) for each of CYP1A2, CYP2C19, CYP2C9, CYP2D6, CYP3A4(BFC) and CYP3A4(BQ) is determined for compounds, where inhibition of metabolism of a known substrate leads to a decrease in the fluorescence of the metabolized product. The fluorescence of the product is monitored as a function of compound concentration. Compounds” for “Compounds”

Chain of B-Raf (P15056 whole entry): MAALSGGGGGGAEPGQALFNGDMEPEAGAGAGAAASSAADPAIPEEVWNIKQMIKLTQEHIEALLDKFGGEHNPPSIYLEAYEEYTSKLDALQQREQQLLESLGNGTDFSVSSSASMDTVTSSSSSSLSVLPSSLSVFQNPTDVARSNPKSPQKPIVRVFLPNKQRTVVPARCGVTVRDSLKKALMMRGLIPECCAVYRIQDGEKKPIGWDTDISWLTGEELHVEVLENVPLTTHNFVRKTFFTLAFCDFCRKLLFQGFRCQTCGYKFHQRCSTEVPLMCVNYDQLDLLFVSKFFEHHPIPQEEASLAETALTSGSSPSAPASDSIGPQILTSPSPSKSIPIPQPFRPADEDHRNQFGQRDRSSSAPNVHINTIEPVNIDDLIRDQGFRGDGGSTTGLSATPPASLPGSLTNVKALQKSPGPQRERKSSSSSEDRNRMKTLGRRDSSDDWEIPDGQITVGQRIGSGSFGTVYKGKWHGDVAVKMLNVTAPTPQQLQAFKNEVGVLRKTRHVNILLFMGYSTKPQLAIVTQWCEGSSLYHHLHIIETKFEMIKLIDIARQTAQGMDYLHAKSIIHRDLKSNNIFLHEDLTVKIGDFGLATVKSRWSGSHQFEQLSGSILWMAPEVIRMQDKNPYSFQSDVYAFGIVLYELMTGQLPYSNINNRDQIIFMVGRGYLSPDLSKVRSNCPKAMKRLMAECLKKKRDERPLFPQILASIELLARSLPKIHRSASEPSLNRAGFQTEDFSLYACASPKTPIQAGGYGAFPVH
Chain of B-Raf V600E (P15056 whole entry V600E): as the sequence (P15056 whole entry) above, with V600E counted along it
Chain of c-Raf-1 (P04049 whole entry): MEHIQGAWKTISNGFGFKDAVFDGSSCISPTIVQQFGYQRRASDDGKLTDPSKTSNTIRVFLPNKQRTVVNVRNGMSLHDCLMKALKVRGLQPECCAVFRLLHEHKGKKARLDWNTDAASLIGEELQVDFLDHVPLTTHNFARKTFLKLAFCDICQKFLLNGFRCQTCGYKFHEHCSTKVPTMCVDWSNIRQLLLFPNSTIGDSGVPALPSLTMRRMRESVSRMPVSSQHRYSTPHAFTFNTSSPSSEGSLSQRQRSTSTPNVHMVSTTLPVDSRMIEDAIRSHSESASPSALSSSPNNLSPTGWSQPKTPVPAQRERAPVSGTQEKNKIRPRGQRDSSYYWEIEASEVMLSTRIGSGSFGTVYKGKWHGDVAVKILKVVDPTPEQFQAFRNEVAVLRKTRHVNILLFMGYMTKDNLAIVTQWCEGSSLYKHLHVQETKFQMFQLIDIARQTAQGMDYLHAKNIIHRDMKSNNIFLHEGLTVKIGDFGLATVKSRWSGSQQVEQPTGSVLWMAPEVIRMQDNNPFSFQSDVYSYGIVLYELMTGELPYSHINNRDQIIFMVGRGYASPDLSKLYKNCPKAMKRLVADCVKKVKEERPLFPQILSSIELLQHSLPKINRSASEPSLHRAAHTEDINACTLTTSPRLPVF
Chain of CYP2C19 (P33261 whole entry): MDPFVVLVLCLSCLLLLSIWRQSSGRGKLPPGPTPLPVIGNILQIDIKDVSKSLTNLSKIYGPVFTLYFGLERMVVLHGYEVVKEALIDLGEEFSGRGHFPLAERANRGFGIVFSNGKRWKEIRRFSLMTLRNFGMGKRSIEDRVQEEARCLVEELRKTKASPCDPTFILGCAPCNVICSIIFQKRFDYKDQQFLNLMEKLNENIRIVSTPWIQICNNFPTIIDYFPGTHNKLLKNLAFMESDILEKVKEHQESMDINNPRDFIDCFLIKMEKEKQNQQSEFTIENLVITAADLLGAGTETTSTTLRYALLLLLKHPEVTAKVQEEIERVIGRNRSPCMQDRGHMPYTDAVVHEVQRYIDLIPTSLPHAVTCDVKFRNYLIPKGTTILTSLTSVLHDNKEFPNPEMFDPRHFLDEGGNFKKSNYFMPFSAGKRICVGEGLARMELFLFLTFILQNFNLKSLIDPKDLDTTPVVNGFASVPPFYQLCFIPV
Chain of CYP3A4(BFC) (P08684 whole entry): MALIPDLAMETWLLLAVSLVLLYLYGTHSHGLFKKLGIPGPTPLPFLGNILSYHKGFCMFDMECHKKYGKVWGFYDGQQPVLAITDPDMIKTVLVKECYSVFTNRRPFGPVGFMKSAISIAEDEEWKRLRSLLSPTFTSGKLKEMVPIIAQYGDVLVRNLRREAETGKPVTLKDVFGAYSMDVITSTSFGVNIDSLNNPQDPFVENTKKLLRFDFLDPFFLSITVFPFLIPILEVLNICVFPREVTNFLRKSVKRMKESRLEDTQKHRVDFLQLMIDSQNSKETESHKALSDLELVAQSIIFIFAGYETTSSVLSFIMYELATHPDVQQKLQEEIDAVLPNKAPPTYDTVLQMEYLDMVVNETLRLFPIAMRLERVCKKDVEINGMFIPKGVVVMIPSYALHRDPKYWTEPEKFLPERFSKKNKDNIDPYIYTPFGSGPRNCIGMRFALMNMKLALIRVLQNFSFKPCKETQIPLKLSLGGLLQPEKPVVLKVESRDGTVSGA
Chain of CYP3A4(BQ) (P08684 whole entry): as above
Chain of CYP2C9 (P11712 whole entry): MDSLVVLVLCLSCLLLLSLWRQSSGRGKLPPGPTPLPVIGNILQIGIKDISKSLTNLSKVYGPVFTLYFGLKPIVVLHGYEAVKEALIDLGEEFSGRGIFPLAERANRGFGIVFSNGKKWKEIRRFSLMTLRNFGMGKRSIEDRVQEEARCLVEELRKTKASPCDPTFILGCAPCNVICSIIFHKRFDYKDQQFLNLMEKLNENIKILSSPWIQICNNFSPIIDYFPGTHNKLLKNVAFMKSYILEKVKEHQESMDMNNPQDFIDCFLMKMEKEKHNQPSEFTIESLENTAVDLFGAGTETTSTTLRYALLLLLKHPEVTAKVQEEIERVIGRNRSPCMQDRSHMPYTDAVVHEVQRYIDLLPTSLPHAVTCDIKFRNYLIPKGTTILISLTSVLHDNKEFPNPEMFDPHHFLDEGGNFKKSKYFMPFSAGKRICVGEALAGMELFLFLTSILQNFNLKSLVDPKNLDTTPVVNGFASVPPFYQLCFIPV
Chain of CYP2D6 (P10635 whole entry): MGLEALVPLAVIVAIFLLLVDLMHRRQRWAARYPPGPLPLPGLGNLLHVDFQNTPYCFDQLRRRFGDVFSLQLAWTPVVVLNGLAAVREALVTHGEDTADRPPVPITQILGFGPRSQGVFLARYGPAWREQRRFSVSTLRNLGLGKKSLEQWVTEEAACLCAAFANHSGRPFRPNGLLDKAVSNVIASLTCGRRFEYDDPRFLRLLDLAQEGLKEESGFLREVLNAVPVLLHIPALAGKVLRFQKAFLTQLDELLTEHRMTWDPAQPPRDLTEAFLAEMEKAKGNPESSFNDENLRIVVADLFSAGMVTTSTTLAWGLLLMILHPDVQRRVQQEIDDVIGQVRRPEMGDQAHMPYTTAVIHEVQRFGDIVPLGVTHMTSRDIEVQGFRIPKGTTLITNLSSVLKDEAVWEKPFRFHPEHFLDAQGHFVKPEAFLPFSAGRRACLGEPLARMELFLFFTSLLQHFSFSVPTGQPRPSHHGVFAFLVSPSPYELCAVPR

| SMILES | IC50 [1] [µM] | IC50 [2] [µM] | IC50 [3] [µM] | IC50 [4] [µM] | turbidity threshold (L, M, H) 7.4 ([5]; HEPES pH 7.4) | turbidity threshold (L, M, H) 4.5 ([5]; SIF pH 4.5) | turbidity threshold (L, M, H) 6.8 ([5]; SIF pH 6.8) | turbidity threshold (L, M, H) 1.4 ([5]; buffer pH 1.4 (SGF)) | IC50 (B-Raf) [µM] | IC50 (B-Raf V600E) [µM] | IC50 (c-Raf-1) [µM] | IC50 (CYP1A2) [µM] | IC50 (CYP2C19) [µM] | IC50 (CYP2C9) [µM] | IC50 (CYP2D6) [µM] | IC50 (CYP3A4(BFC)) [µM] | IC50 (CYP3A4(BQ)) [µM] |
| --- | --- | --- | --- | --- | --- | --- | --- | --- | --- | --- | --- | --- | --- | --- | --- | --- | --- |
| O=C(c1c(F)ccc(NS(=O)(=O)c2cccnc2)c1F)c1c[nH]c2nccc(Cl)c12 [P-2074, Pyridine-3-sulfonic acid [3-(4-chloro-1H-pyrrolo[2,3-b]pyridine-3-carbonyl)-2,4-difluoro-phenyl]-amide] | > 10 | < 5 | < 10 | > 10 |  |  |  |  |  |  |  |  |  |  |  |  |  |
| N#Cc1cnc2[nH]cc(C(=O)c3cccc(NS(=O)(=O)c4cccnc4)c3F)c2c1 [P-2086, Pyridine-3-sulfonic acid [3-(5-cyano-1H-pyrrolo[2,3-b]pyridine-3-carbonyl)-2-fluoro-phenyl]-amide] | > 10 | < 10 |  | > 10 | H (high solubility if the threshold concentration is >250 μM) | M (moderate solubility if the threshold concentration is 31.3 μM to 250 μM) | M (moderate solubility if the threshold concentration is 31.3 μM to 250 μM) | M (moderate solubility if the threshold concentration is 31.3 μM to 250 μM) |  |  |  |  |  |  |  |  |  |
| CCCS(=O)(=O)Nc1ccc(F)c(C(=O)c2c[nH]c3ncc(-c4cnc(OCCCN(C)C)nc4)cc23)c1F [P-2203, Propane-1-sulfonic acid (3-{5-[2-(3-dimethylamino-propoxy)-pyrimidin-5-yl]-1H-pyrrolo[2,3-b]pyridine-3-carbonyl}-2,4-difluoro-phenyl)-amide] | > 10 | < 1 |  |  |  |  |  |  | < 0.01 | < 0.01 |  |  |  |  |  |  |  |
| CCCS(=O)(=O)Nc1ccc(F)c(C(=O)c2c[nH]c3ncc(-c4ccc(S(=O)(=O)C(C)C)cc4)cc23)c1F [P-2223, Propane-1-sulfonic acid (2,4-difluoro-3-{5-[4-(propane-2-sulfonyl)-phenyl]-1H-pyrrolo[2,3-b]pyridine-3-carbonyl}-phenyl)-amide] |  |  |  |  |  |  |  |  | < 0.01 | < 0.01 | < 0.01 | > 10 | > 10 | > 10 | > 10 | > 10 | > 10 |
